Blank lines part the entries; values can stand above or below the molecule they belong to.
What was measured:
human fibroblasts = human fibroblasts loaded with Fluo-3/AM
Source text: Human fibroblasts were loaded with the calcium indicator Fluo-3/AM (Molecular Probes), and a caged and cell permeable coumarin derivative (compound 8, FIG. 6). […] Optical filters were used (coumarin excitation, 440AF21 (Omega Optical); Fluo-3 excitation, 490/20; UV uncaging 330WB80; dichroic, 61010bs; emission filter, 84101 special; all of Chroma Technology unless stated otherwise).
Fluo-3 measures cell calcium concentrations.

[1] = at 730 nm; cited from earlier work
[2] = test system: gap junction transfers in coupled human fibroblast cells; experiment: Inhibition of junctional coumarin (HCCC2) transfer after localized uncaging; type: cell-based; conditions: human fibroblasts loaded with NPE-HCCC2-AM (1 μM); added prior to the third uncaging
Method: Coupled human fibroblast cells were loaded with NPE-HCCC2-AM (1 μM) for 40 minutes in Hanks Balanced Saline (HBS with 10 mM Hepes, 5.5 mM glucose, pH 7.3), then washed and incubated for another 15 minutes before imaging on an inverted fluorescence microscope. The time course of fluorescent intensities of HCCC2 after it was locally uncaged in the “donor” cells is shown in FIG. 10 (FHCCC2, arbitrary units, 425±5 nm excitation, 460±10 nm emission). A field diaphragm was placed in the excitation light path inside the microscope. The iris of the field diaphragm was reduced to a minimum to limit the area of UV illumination (360±20 nm) to a fraction of a cell during localized uncagings. Digital fluorescence images were taken every 15 seconds. The rates of HCCC2 diffusion are indicated under each episode of transfer. α-Glycyrrhetinic (“αG”) was added to the cells prior to the third uncaging. αG is a classical inhibitor of gap junction transfers (Rozental, et al., 2001).

[3] = Two photon uncaging action cross section at 740 nm with Bhc-OAc as reference; type: physicochemical; conditions: for photolysis after 20 minutes of continuous illumination: 345 mW exiting the cuvette; for sensitivity to two photon uncaging relative to 2a: average power 590 mW exiting the cuvette
Method: To calculate δu, 6-bromo-7-hydroxycoumarin-4-ylmethyl acetate (Bhc-OAc) was used as a reference compound (Furuta, 1999; Fedoryak, 2002). The compounds tested included Compound 2a from FIG. 3 and a compound 2a′ having the structure:
Bhc-OAc, Compound 2a, and Compound 2a′ in microcuvettes were illuminated using focused infrared light ([…]) from a femtosecond-pulsed and mode locked Ti-sapphire laser. The two photon uncaging action cross section was determined using the equation (Furuta, 1999):
[formula] • where Np is the number of product molecules formed per unit time, <I0^2(t)> is the mean squared light intensity, S(r) is a unitless spatial distribution function, and the integral is over the volume of the microcuvet, and Cs is the substrate concentration. If caged compounds are photolyzed under the identical setting with the same two photon laser power, then the term <I0^2(t)>∫S^2(r)dV should be about the same for different cages. Thus, δu^a of cage “a” can be determined by comparing its rate of product formation (Np^a) with that of reference cage “b” with known δu^b according to the equation: […]
The formation of coumarins after two photon photolysis of Compound 2a and […] was quantified similarly as in the one photon uncaging experiments by measuring the fluorescence enhancement. The photolysis of Bhc-OAc was quantified by HPLC analysis as described (Furuta, 1999; Fedoryak, 2002).
Two photon photolysis was carried out using a procedure similar to the one first described by Furuta et al (Furuta, 1999). Samples in 100 mM Mops buffer (pH 7.3) were transferred to a microcuvette (Hellma 105.251-QS). The filling volume of the cuvette was […]. The laser beam from a fs-pulsed and mode-locked Ti-Sapphire laser (Mira 900-F pumped by a Verdi, Coherent, Santa Clara, Calif.) was focused into the center of the cuvette with a focusing lens (01 LPX 029/077, focal length 25 mm, Melles-Griot, Carlsbad, Calif.). After irradiation with 740 nm light, samples were collected and the formation of the products was quantified. The formation of coumarins from caged precursors 2a or 2a′ (initial concentration 10 μM) was measured by fluorescence spectroscopy. The photolysis of Bhc-OAc (initial concentration 100 μM) was followed by HPLC. Two-photon uncaging cross sections (δu) were calculated from equation (2) and the reported δu of 0.72 GM for Bhc-OAc at 345 mW laser power exiting the cuvette (Fedoryak, 2002).

[4] = 740 nm, 345 mW laser power exiting the cuvette; cited from earlier work

SMILES: NCCc1c[nH]cn1 [histamine]
intracellular calcium (Fluo-3 channel) (human fibroblasts): induced intracellular calcium increase

SMILES: COc1ccc([N+](=O)[O-])c2c1CCN2C(=O)CC[C@H](N)C(=O)O [MNI caged glutamate]
δu, two photon uncaging cross section [1]: 0.06 GM

SMILES: CC1(C)[C@@H](O)CC[C@]2(C)[C@H]3C(=O)C=C4[C@H]5C[C@@](C)(C(=O)O)CC[C@]5(C)CC[C@@]4(C)[C@]3(C)CC[C@@H]12 [αG, α-glycyrrhetinic acid]
inhibition of coumarin transfer through gap junctions [2]: susceptible to inhibition by αG

photolysis after 20 minutes of continuous illumination [3]: 10%
δu, two photon uncaging action cross section ([3]; estimated against Bhc-OAc (0.72 GM)): 0.68 GM
SMILES: COC(=O)CC[C@@H](NC(=O)c1cc2ccc(OC(C)c3ccccc3[N+](=O)[O-])cc2oc1=O)C(=O)OC (stereo partly drawn) [Compound 2a′]
sensitivity to two photon uncaging relative to 2a [3]: about two times more sensitive to two photon uncaging than 2a

photolysis after 20 minutes of continuous illumination [3]: 10.6%
SMILES: CC(=O)OCc1cc(=O)oc2cc(O)c(Br)cc12 [Bhc-OAc, 6-bromo-7-hydroxycoumarin-4-ylmethyl acetate]
reported δu, two photon uncaging cross section [4]: 0.72 GM
sensitivity to two photon uncaging relative to 2a [3]: about two times more sensitive to two photon uncaging than 2a
